How the values were obtained:
[1] = refractive index (Na D-line) (dimensionless); xn = mol fraction of the nth substance listed; settings: 100 kPa, Liquid, Standard Abbe refractometry
[2] = xn = mol fraction of the nth substance listed; settings: 100 kPa, Liquid; for speed of sound: Frequency=3 MHz, Sing-around technique in a fixed-path interferometer; for mass density: Vibrating tube method

CCCCCCCC[n+]1ccn(C)c1.F[B-](F)(F)F [1-methyl-3-octylimidazolium tetrafluoroborate] + CC(C)CO
Settings	mass density, 298.15 K [kg/m3]	mass density, 308.15 K [kg/m3]	mass density, 318.15 K [kg/m3]	refractive index, 298.15 K	refractive index, 308.15 K	refractive index, 318.15 K	speed of sound, 298.15 K [m/s]	speed of sound, 308.15 K [m/s]	speed of sound, 318.15 K [m/s]
[1], x1 = 0.1084	–	–	–	1.40643	1.40292	1.40008	–	–	–
[1], x1 = 0.2056	–	–	–	1.41442	1.41142	1.40854	–	–	–
[1], x1 = 0.3002	–	–	–	1.41922	1.41636	1.41407	–	–	–
[1], x1 = 0.4082	–	–	–	1.42292	1.41998	1.41801	–	–	–
[1], x1 = 0.4989	–	–	–	1.42482	1.42182	1.41925	–	–	–
[1], x1 = 0.6024	–	–	–	1.42664	1.42372	1.42108	–	–	–
[1], x1 = 0.7044	–	–	–	1.42845	1.42562	1.42306	–	–	–
[1], x1 = 0.8062	–	–	–	1.43004	1.42748	1.42474	–	–	–
[1], x1 = 0.8998	–	–	–	1.43121	1.42866	1.42604	–	–	–
[1], x1 = 1	–	–	–	1.43253	1.42984	1.42715	–	–	–
[2], x1 = 0.1084	876.21	869.11	860.8	–	–	–	1230.3	1198.3	1162.2
[2], x1 = 0.2056	927.81	920.72	912.57	–	–	–	1274.1	1242.4	1206.4
[2], x1 = 0.3002	966.65	959.59	951.64	–	–	–	1314.4	1282.1	1246.2
[2], x1 = 0.4082	1001.41	994.4	986.65	–	–	–	1354.1	1322.4	1287.5
[2], x1 = 0.4989	1024.88	1017.95	1010.44	–	–	–	1381.1	1351.3	1317.8
[2], x1 = 0.6024	1047.08	1040.26	1032.97	–	–	–	1407.2	1378.2	1347.4
[2], x1 = 0.7044	1065.38	1058.63	1051.52	–	–	–	1429.1	1402.1	1373.3
[2], x1 = 0.8062	1080.91	1074.22	1067.26	–	–	–	1447.2	1421.1	1394.3
[2], x1 = 0.8998	1093.3	1086.63	1079.78	–	–	–	1463.8	1437.1	1411.3
[2], x1 = 1	1105.02	1098.32	1091.54	–	–	–	1485.1	1458.5	1433.2
